Experimental data reported in US20080119530A1, “Method for treatment and prevention of ultraviolet light induced skin pathologies” (priority 2006, published 2008).

Experiments:
[1] = test system: proliferating cell nuclear antigen (PCNA); assay: PCNA expression in skin; assay type: in vivo, mouse; details: sham-irradiated skin and UV-exposed skin
Method: It has been discovered that Erbb2 modulates the expression of genes important in both proliferation and apoptosis following UV exposure in vivo (Example 9). Accordingly, the influence of Erbb2 on both apoptosis and cell proliferation was assessed in order to determine the mechanisms of Erbb2's effect on hyperplasia in the skin after UV irradiation. Erbb2 suppresses UV-induced apoptosis in vitro, although the effect was slight (32). The percentage of TUNEL-positive basal cells was increased at 24 h after UV in vehicle-treated skin, consistent with previous observations in this animal model (13). […] Erbb2 reportedly suppresses keratinocyte differentiation (11), a process leading to keratinocyte death that is mechanistically and morphologically distinct from apoptosis. […] Mean proliferating cell nuclear antigen (PCNA) expression, a marker of cell proliferation, was less in Erbb2 inhibitor treated sham-irradiated skin and in UV-exposed skin when compared to the vehicle-treated controls.

[2] = test system: mice; assay: Skin-fold thickness as a measure of UV-induced edema; assay type: in vivo, mouse
Source text: Adult female CD-1 mice were maintained in our animal facility and provided with Purina lab chow (Nestlé Purina PetCare, St. Louis, Mo.) and water ad libitum. The dorsal skin was clipped one day before treatment and shaved with a Remington Microscreen shaver (Wahl, Sterling, II) on the day of treatment. […] UVB TL 40W/12 RS bulbs (Philips, Somerset, N.J.) were used that emitted approximately 30% UV-A, 70% UV-B and <1% UV-C, with a total output of 470 μW/cm^2, as measured with radiometric photodetector probes (Newport, Irvine, Calif.). Skin-fold thickness was measured using calipers to lightly pinch the dorsal skin. All animal procedures were approved by our Institutional Animal Care and Use Committee.

[3] = test system: p38 kinase, ERK1/2 and JNK1/2; assay: MAPK activity in keratinocytes; assay type: cell-based, mouse; details: after sham UV
Source text: Inactivation of Cdc25a can occur through activation of a member of the p38 MAPK signaling pathway, which is also activated by Erbb2, but this regulation of Cdc25a remains controversial (24). […] Other mechanisms for the inactivation of Cdc25a, including sequestration in the cytoplasm and phosphorylation by p38 kinase following UV exposure or osmotic shock, have been reported (25).

[4] = test system: Akt; assay: Akt activity by phosphorylation on immunoblot in keratinocytes; assay type: cell-based, mouse; details: sham-irradiated keratinocytes and 30 minutes post-UV
Method: Immunoblotting. Flash frozen skin was ground with a mortar and pestle on dry ice, homogenized in lysis buffer containing 10 mM Tris (pH 7.4), 150 mM NaCl, 10% glycerol, 1% Triton X-100, 1 mM EDTA, Complete Protease Inhibitor Cocktail (Roche, Germany), 1 mM Na3V O4, 1.5 μM EGTA, and 10 μM NaF. Protein was quantified using the Coomassie Brilliant Blue G-250 protein assay (Bio-Rad, Hercules, Calif.). The evenness of loading and transfer was determined by staining with Ponceau S and by actin immunoblotting. […]
Cell culture. […] Transfection efficiency was quantified by determining the proportion of the cells that incorporated the fluorescent Cy3-conjugated siRNA or GFP one day post-transfection. […]

COc1cc(/C=C(\C#N)C(N)=O)cc(CSc2nc3ccccc3s2)c1O [AG825]
mean PCNA expression vs vehicle-treated controls [1]: less | suppression of UV-induced edema (skin-fold thickness) ([2]; 4 d after UV exposure): 33% | suppression of UV-induced edema (skin-fold thickness) ([2]; 5 d after UV exposure): 37% | suppression of UV-induced edema (skin-fold thickness) ([2]; 6 d after UV exposure): 64% | p38 kinase, ERK1/2 and JNK1/2 activity [3]: decrease | Akt activity, measured by its phosphorylation on immunoblot [4]: reduced
